From patent US10583109B2, “Use of silver(I) complexes as anticancer agents” (University of Johannesburg, priority 2012, dated 2020)

How the values were obtained:
[1] = tested on: SNO-oesophageal cancer cells; test: Morphological features of SNO-oesophageal cancer cells by inverse light microscopy; format: cell-based; conditions: 10 μM, 24 hours of treatment
Protocol: Morphological studies were done by means of an Axiovert 25 inverted microscope (Carl Zeiss, Göttingen, Germany) with Axio Vision 3.1 software (Carl Zeiss, Göttingen, Germany) using an magnification of 100×.
After 24 hours of treatment with complexes (1)-(5) including their ligands the cells were examined under said Axiovert 25 inverted light microscope. This was done to determine how the complexes of the present invention influence morphology which was compared to 100 μM Cisplatin (apoptotic control) and 15% H2O2 (necrotic control).
Light microscope images indicating the morphology of the differentially treated SNO-oesophageal cancer cells is shown in FIG. 8. An untreated control (a) including 100 μM Cisplatin (b), an apoptotic control and 15% H2O2 (c), and a necrotic control was included. Cells were treated with 10 μM silver(I) thiocyanate phosphine complexes (1)-(5) as well as their separate ligands (Ligand-1 to Ligand-5, respectively) (FIGS. 8d to 8m). Black arrows represent signs of apoptosis, while the white arrows represent signs of necrosis.
An Axiovert 25 inverted microscope was used to examine if these complexes affect the morphological features of the malignant cells in any other way. This was done at a magnification of 100× with the use of Axio Version 3.1 software (Carl Zeiss, Gottingen, Germany).
Morphological studies where done after 24 hours of treatment to determine how these compounds influence/change specific features of the malignant SNO-oesophageal cancer cells, compared to the untreated (UC) and 1% DMSO vehicle control. The treated cancer cells including their controls were examined under an Axiovert 25 inverted light microscope (Carl Zeiss, Göttingen, Germany) with Axio Vision 3.1 software (Carl Zeiss, Göttingen, Germany) using a 100× magnification. In FIG. 19, the morphology of the different controls including Ligand-10 and complexes (10)-(12) are represented. To predict the targeting mechanisms of these compounds, the treated cells were compared to 100 μM Cisplatin (apoptotic control) and 25% H2O2 (necrotic control).

[2] = tested on: SNO-oesophageal cancer cells; test: Flow cytometric analysis (Annexin-V FITC / PI) of apoptosis and/or necrosis in SNO-oesophageal cancer cells; format: cell-based; conditions: 10 μM
Protocol: To determine if either apoptosis or necrosis occurred, the cells were double labelled with Annexin-V FITC and Propidium Iodide (PI) by means of an Annexin-V FITC assay kit (Serotec, UK). This was done according to manufacturer's instructions with a few adjustments. Briefly, the cells (±3×10^5 cells/ml) were washed twice with cold phosphate buffered saline (PBS), followed by the addition of 100 μl 1× binding buffer. Two and a half microliters of Annexin-V along with 5 μl PI were added in the dark and was incubated for 15 minutes at room temperature. After incubation, 400 μl 1× binding buffer was added and cells were analysed using the FACSAria flow cytometer (BD Biosciences, San Jose, Calif.) with FACSDiva software (BD Biosciences, San Jose, Calif.) 492 nm (excitation) and 520 nm for Annexin and 488 nm and 575 nm(emission) for PI.
The cell membrane contains a negatively charged phosphatidylserine (PS) on the inner leaflet and is exposed when apoptosis or necrosis takes place. Annexin-V interacts with PS in both apoptotic and necrotic cells, making these cellular deaths undistinguishable. This is overcome by using PI as an alternative label that interacts with the exposed DNA of necrotic cells only, leading to the fluorescent detection of both these labels. Pie charts (FIG. 9) were constructed for all the controls (including Ligand-1 to Ligand-5) and the different silver(I) thiocyanate phosphine complexes (1)-(5).
Pie charts representing the four different flow cytometric quadrants of Annexin-V and […] to determine the mode of cellular death induced in differentially treated SNO-oesophageal cells are represented in FIG. 9. An untreated control (A), apoptotic control (B) and necrotic control (C) were included. Cells were treated with 10 μM of the different ligands including the silver(I) thiocyanate phosphine complexes (1)-(5). An average percentage was calculated for all segments where the SEM is n=3 for all treatments except for 15% H2O2 (n=2). The four segments represent the following: White segment—negative for FITC and PI, Light grey segment—positive for FITC but negative for PI, Dark grey segment—positive for PI but negative for FITC and Black segment—positive for both FITC and PI. Cells undergoing early apoptosis are represented by the light grey segment, while those of late apoptosis and primary necrosis are represented by the black segment. Necrotic cells are represented by the dark grey segment and intact viable cells are shown by the white segment.
Approximately 3×10^5 cells were washed with ice cold phosphate buffered saline solution (PBS). The cells were double labeled using an Annexin-V FITC assay kit adjusting the protocol. A 1× binding buffer (100 μl) was used to fix the cells. Annexin-V (2.5 μl) and Propidium Iodide (PI—5 μl) labels were added respectively followed by a 15 minute incubation, at room temperature, in the dark. After the incubation period, 400 μl of the 1× binding buffer was added, where counting of the cellular events was made using an FACSAria flow cytometer (BD Biosciences, San Jose, Calif.) with FACSDiva software (BD Biosciences, San Jose, Calif.). This technique in particular identifies whether predicted apoptotic cell death (or necrosis) was induced by these complexes.
As observed in FIG. 14, dot blots represent the mode of cellular death induced in the SNO-oesophageal cancer cells after 24 hours of treatment. FIG. 14(a): 0.1% DMSO, FIG. 14(b): 100 μM CDDP, FIG. 14(c): 25% H2O2, FIG. 14(d-i): complexes (6)-(9). An average percentage was calculated for all quadrants where the SEM is n=2 for all treatments. The four quadrants represent the following: Quadrant Q3 is negative for FITC and PI, Quadrant Q4 is positive for FITC but negative for PI, Quadrant Q1 is positive for PI but negative for FITC and Quadrant Q2 is positive for both FITC and PI. Cells undergoing early apoptosis are more likely to be found in Quadrant Q4 while those of late apoptosis and primary necrosis will be found in Quadrant Q2. […]

| Compound | necrotic cell death (morphology) [1] | viable cells (flow cytometry) ([2]; 24 hour treatment) | apoptotic cell death (flow cytometry, Q4 and Q2) ([2]; 24 hours of treatment) | cancer cells in which apoptosis was induced (flow cytometry) ([2]; 24 hour treatment) |
| --- | --- | --- | --- | --- |
| C1#[N+][Ag]([P+](c2ccccc2)(c2ccccc2)c2ccccc2)([P+](c2ccccc2)(c2ccccc2)c2ccccc2)[S]C#[N+][Ag]([P+](c2ccccc2)(c2ccccc2)c2ccccc2)([P+](c2ccccc2)(c2ccccc2)c2ccccc2)[S]1 [complex (1), [AgSCN(PPh3)2]2] | Necrotic cell death was also observed | ~57.47% |  |  |
| c1ccc([P+](c2ccccc2)(c2ccccc2)[Ag+]([P+](c2ccccc2)(c2ccccc2)c2ccccc2)([P+](c2ccccc2)(c2ccccc2)c2ccccc2)[P+](c2ccccc2)(c2ccccc2)c2ccccc2)cc1 [complex (9), AgNO3(PPh3)4] |  |  | 15.3% |  |
| [AgSCN{P(4-FC6H4)3}2]2 [complex (3)] | Necrotic cell death was also observed | approximately 28% |  | more than half |
